Results on 23 molecules are retold here after US9434734B2, “Substituted pyrazoloquinazolinones and pyrroloquinazolinones as allosteric modulators of group II metabotropic glutamate receptors” (Domain Therapeutics, priority 2012, dated 2016).

Structures are written as SMILES.

Series [1] deals with T1, human mGluR2 (hmGluR2) transiently over-expressed in HEK-293 cells (Homo sapiens, UniProt Q14416).
T1 construct: expressed in transfected cells; host or cells: HEK-293 cells, transient co-transfection by electroporation
As to the kind of experiment: Human mGluR2 negative allosteric modulator evaluation using Ca++ functional assay (agonist and NAM activity). The series is classed as cell-based. The note with it: hmGluR2 in HEK-293 cells, EC80 glutamate, Fluo4AM calcium readout; read-out: mGluR2 negative allosteric modulator activity IC50. How it is done: Human mGluR2 Negative Allosteric Modulator Evaluation Using Ca^++ Functional Assay
Compounds of the present invention were tested successively for their agonist and negative allosteric modulator activities on human mGluR2 (hmGluR2) transiently over-expressed in HEK-293 cells. They exert agonist activity if they are able to activate mGluR2 by themselves, i.e., in absence of the endogenous agonist glutamate; and they exert negative allosteric modulator activity if they decrease the action of the endogenous agonist glutamate.
HEK-293 cells were maintained in Modified Eagle's Medium supplemented with 10% Foetal Calf Serum, 1% Penicillin/Streptomycin and 1% nonessential amino acids at 37° C./5% CO2.
Cells were plated after transfection onto polyornithine coated, clear bottom, black-walled, 96-well plates and cultured for 24 h.
Receptor activity was detected by changes in intracellular calcium measured using the fluorescent Ca^2+ sensitive dye, Fluo4AM (Molecular Probes).
The day of the assay, medium was aspirated and replaced during 3 hours by medium without serum supplemented with 1% Glutamax, 1% Penicillin/Streptomycin and 1% nonessential amino acids. Then, cells were washed with freshly prepared buffer B (HBSS 1× (PAA), Hepes 20 mM, MgSO4-7H2O 1 mM, Na2CO3 3.3 mM, CaCl2-2H2O 1.3 mM, 0.5% BSA, Probenecid 2.5 mM) and loaded at 37° C./5% CO2 for 1.5 hours with buffer B containing 1 μM Fluo4AM, 0.1 mg/mL Pluronic Acid, 7 μg/mL Glutamate Pyruvate Transaminase and 2 mM sodium pyruvate. Afterwards cells were washed twice with buffer B and 50 μL of this buffer were added to each well.
Agonist and negative allosteric modulator activities of compounds were consecutively evaluated on the same cells plate. […] Then, the cells were stimulated by an EC80 glutamate concentration and fluorescence was recorded for additional 60 s. EC80 glutamate concentration is the concentration giving 80% of the maximal glutamate response. Agonist and/or negative allosteric modulator activity(ies) were evaluated in comparison to basal signal or signal evoked by EC80 glutamate alone, respectively.
For potency determination, a dose-response test was performed using 8 concentrations of each compound of the invention. Dose-response curves were fitted using the sigmoidal dose-response (variable slope) analysis in GraphPad Prism program (Graph Pad Inc) and EC50 of agonist/IC50 of negative allosteric modulator activity was calculated. Dose-response experiments were all performed in duplicate, two times independently.

T1 sequence (Q14416 19-872): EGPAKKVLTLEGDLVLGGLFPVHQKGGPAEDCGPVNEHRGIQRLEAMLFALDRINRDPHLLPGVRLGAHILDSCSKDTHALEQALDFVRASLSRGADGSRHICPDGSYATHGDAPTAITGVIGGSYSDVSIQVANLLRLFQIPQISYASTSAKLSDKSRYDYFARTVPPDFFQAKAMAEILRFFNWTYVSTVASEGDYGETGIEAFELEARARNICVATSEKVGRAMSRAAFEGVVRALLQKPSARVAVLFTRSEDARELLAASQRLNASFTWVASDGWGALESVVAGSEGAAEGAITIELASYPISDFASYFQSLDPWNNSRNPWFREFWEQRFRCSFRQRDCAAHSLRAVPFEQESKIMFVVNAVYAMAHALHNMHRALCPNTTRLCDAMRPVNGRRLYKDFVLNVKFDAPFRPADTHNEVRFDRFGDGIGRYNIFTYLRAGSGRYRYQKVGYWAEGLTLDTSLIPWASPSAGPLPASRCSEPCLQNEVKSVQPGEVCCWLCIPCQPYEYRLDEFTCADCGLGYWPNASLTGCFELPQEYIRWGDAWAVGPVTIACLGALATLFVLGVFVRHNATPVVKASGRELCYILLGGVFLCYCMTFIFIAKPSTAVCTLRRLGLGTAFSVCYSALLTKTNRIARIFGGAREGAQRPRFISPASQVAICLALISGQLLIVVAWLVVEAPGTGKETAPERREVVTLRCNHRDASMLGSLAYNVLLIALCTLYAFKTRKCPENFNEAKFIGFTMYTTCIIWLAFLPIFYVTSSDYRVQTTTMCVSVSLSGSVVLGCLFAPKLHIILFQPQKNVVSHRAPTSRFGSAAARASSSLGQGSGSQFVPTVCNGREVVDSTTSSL

As a reminder, the melting point is the temperature, or range, at which the solid turns liquid. In general, IC50 refers to the concentration at which inhibition is half-maximal. `CCCc1cc2n(C)c(=O)c3ccc(-c4ccc(N)nc4)cc3n2n1.Cl` [Example 50, 8-(6-Amino-pyridin-3-yl)-4-methyl-2-propyl-4H-pyrazolo[1,5-a]quinazolin-5-one] registered a melting point above 250 °C. Besides, in series [1], the IC50 was below 1 µM.
In the same order, the values of `CC(C)c1cc2n(C)c(=O)c3ccc(-c4ccc(N)nc4)cc3n2n1.Cl` [Example 51, 8-(6-Amino-pyridin-3-yl)-2-isopropyl-4-methyl-4H-pyrazolo[1,5-a]quinazolin-5-one] are 240 to 244 °C and below 1 µM.
In the same order, the values of `COCCc1cc2n(C)c(=O)c3ccc(-c4ccc(N)nc4)cc3n2n1.Cl` [Example 53, 8-(6-Amino-pyridin-3-yl)-2-(2-methoxy-ethyl)-4-methyl-4H-pyrazolo[1,5-a]quinazolin-5-one] are 198 to 202 °C and below 1 µM.
In the same order, the values of `Cl.Cn1c(=O)c2ccc(-c3ccc(N)nc3)cc2n2nc(C3CC3)cc12` [Example 63, 8-(6-Amino-pyridin-3-yl)-2-cyclopropyl-4-methyl-4H-pyrazolo[1,5-a]quinazolin-5-one] are above 250 °C and below 1 µM.
In turn, `Cl.Cn1c(=O)c2ccc(-c3ccc(N)nc3)cc2n2nc(C3CCC3)cc12` [Example 64, 8-(6-Amino-pyridin-3-yl)-2-cyclobutyl-4-methyl-4H-pyrazolo[1,5-a]quinazolin-5-one] displayed a melting point above 250 °C. Moreover, the IC50 in series [1] was below 1 µM.
In the same order, the values of `Cl.Cn1c(=O)c2ccc(-c3ccc(N)nc3)cc2n2nc(C3CCCC3)cc12` [Example 65, 8-(6-Amino-pyridin-3-yl)-2-cyclopentyl-4-methyl-4H-pyrazolo[1,5-a]quinazolin-5-one] are above 250 °C and below 1 µM.
In the same order, the values of `Cc1cc(-c2ccc3c(=O)n(C)c4cc(C5CCCC5)nn4c3c2)cc(C)n1.Cl` [Example 66, 2-Cyclopentyl-8-(2,6-dimethyl-pyridin-4-yl)-4-methyl-4H-pyrazolo[1,5-a]quinazolin-5-one] are above 250 °C and below 1 µM.
The molecule `CCn1c(=O)c2ccc(-c3cc(C)nc(C)c3)cc2n2nc(C3CCCC3)cc12.Cl` [Example 70, 2-Cyclopentyl-8-(2,6-dimethyl-pyridin-4-yl)-4-ethyl-4H-pyrazolo[1,5-a]quinazolin-5-one] had a melting point above 250 °C. Further, in series [1], the IC50 is below 1 µM.
Taken in the same sequence, the figures for `CCCn1c(=O)c2ccc(-c3ccc(N)nc3)cc2n2nc(C3CCCC3)cc12.Cl` [Example 71, 8-(6-Amino-pyridin-3-yl)-2-cyclopentyl-4-propyl-4H-pyrazolo[1,5-a]quinazolin-5-one] were above 250 °C and below 1 µM.
Molecule `Cl.Cn1c(=O)c2ccc(-c3ccc(N)nc3)cc2n2nc(C3CCCCC3)cc12` [Example 74, 8-(6-Amino-pyridin-3-yl)-2-cyclohexyl-4-methyl-4H-pyrazolo[1,5-a]quinazolin-5-one] displayed a melting point of 194 to 197 °C. Moreover, in series [1], the IC50 is below 1 µM.
Molecule `Cc1n[nH]cc1-c1ccc2c(=O)n(C)c3cc(C4CCCCC4)nn3c2c1` [Example 75, 2-Cyclohexyl-4-methyl-8-(3-methyl-1H-pyrazol-4-yl)-4H-pyrazolo[1,5-a]quinazolin-5-one] registered a melting point above 250 °C. For the same molecule, the IC50 in series [1] was below 1 µM.
In the same order, the values of `Cc1cc(-c2ccc3c(=O)n(C)c4cc(C5CCCCCC5)nn4c3c2)cc(C)n1.Cl` [Example 77, 2-Cycloheptyl-8-(2,6-dimethyl-pyridin-4-yl)-4-methyl-4H-pyrazolo[1,5-a]quinazolin-5-one] are above 250 °C and below 1 µM.
In the same order, the values of `Cl.Cn1c(=O)c2ccc(-c3ccc(N)nc3)cc2n2nc(Cc3ccccc3)cc12` [Example 79, 8-(6-Amino-pyridin-3-yl)-2-benzyl-4-methyl-4H-pyrazolo[1,5-a]quinazolin-5-one] are above 250 °C and below 1 µM.
Taken in the same sequence, the figures for `Cl.Cn1c(=O)c2ccc(-c3ccc(N)nc3)cc2n2nc(-c3ccc(F)cc3)cc12` [Example 80, 8-(6-Amino-pyridin-3-yl)-2-(4-fluoro-phenyl)-4-methyl-4H-pyrazolo[1,5-a]quinazolin-5-one] were above 250 °C and below 1 µM.
The molecule `Cc1n[nH]cc1-c1ccc2c(=O)n(C)c3cc(-c4ccc(F)cc4)nn3c2c1` [Example 81, 2-(4-Fluoro-phenyl)-4-methyl-8-(3-methyl-1H-pyrazol-4-yl)-4H-pyrazolo[1,5-a]quinazolin-5-one] registered a melting point above 250 °C. In addition, the IC50 in series [1] was below 1 µM.
`Cl.Cn1c(=O)c2ccc(-c3ccc(N)nc3)cc2n2nc(-c3ccco3)cc12` [Example 82, 8-(6-Amino-pyridin-3-yl)-2-furan-2-yl-4-methyl-4H-pyrazolo[1,5-a]quinazolin-5-one] showed a melting point of 218 to 229 °C. Also, the IC50 in series [1] was below 1 µM.
`Cl.Cn1c(=O)c2ccc(-c3ccc(N)nc3)cc2n2nc(C3CCSCC3)cc12` [Example 83, 8-(6-Amino-pyridin-3-yl)-4-methyl-2-(tetrahydro-thiopyran-4-yl)-4H-pyrazolo[1,5-a]quinazolin-5-one] gave a melting point above 250 °C. For the same molecule, the IC50 in series [1] was below 1 µM.
As for `Cl.Cn1c(=O)c2ccc(-c3ccc(N)nc3)cc2n2nc(C3CCS(=O)(=O)CC3)cc12` [Example 84, 8-(6-Amino-pyridin-3-yl)-2-(1,1-dioxo-tetrahydro-2H-thiopyran-4-yl)-4-methyl-4H-pyrazolo[1,5-a]quinazolin-5-one], the melting point was above 250 °C. Further, the IC50 in series [1] was below 1 µM.
In turn, `Cn1cc(-c2ccc3c(=O)n(C)c4cc(-c5cccnc5)nn4c3c2)cn1` [Example 85, 4-Methyl-8-(1-methyl-1H-pyrazol-4-yl)-2-pyridin-3-yl-4H-pyrazolo[1,5-a]quinazolin-5-one] had a melting point above 250 °C. Also, the IC50 in series [1] is below 1 µM.
In the same order, the values of `Cl.Cn1c(=O)c2ccc(-c3ccc(N)nc3)cc2n2nc(C3CCOCC3)cc12` [Example 86, 8-(6-Amino-pyridin-3-yl)-4-methyl-2-(tetrahydro-pyran-4-yl)-4H-pyrazolo[1,5-a]quinazolin-5-one] are above 250 °C and below 1 µM.
The molecule `Cn1c(=O)c2ccc(-c3cccc(C#N)c3)cc2n2nc(C3CCOCC3)cc12` [Example 88, 3-[4-Methyl-5-oxo-2-(tetrahydro-pyran-4-yl)-4,5-dihydro-pyrazolo[1,5-a]quinazolin-8-yl]-benzonitrile] registered a melting point of 210 to 216 °C. Also, the IC50 in series [1] was below 1 µM.
`Cl.Cn1c(=O)c2ccc(-c3cccnc3)cc2n2nc(C3CCOCC3)cc12` [Example 89, 4-Methyl-8-pyridin-3-yl-2-(tetrahydro-pyran-4-yl)-4H-pyrazolo[1,5-a]quinazolin-5-one] had a melting point of 202 to 224 °C. For the same molecule, the IC50 in series [1] was below 1 µM.
Taken in the same sequence, the figures for `Cc1[nH]ncc1-c1ccc2c(=O)n(C)c3cc(C4CCOCC4)nn3c2c1` [Example 92, 4-Methyl-8-(5-methyl-1H-pyrazol-4-yl)-2-(tetrahydro-pyran-4-yl)-4H-pyrazolo[1,5-a]quinazolin-5-one] were 223 to 229 °C and below 1 µM.
